{"source": "paper PMC6220849", "about": "“Mechanistic and structural studies of KDM‐catalysed demethylation of histone 1 isotype 4 at lysine 26” (Febs Letters, 2018)", "type_in_all_cases": "biochemical, human", "key": {"KDM4E (KDM4E1–337)": {"tested_on": "KDM4E (KDM4E1–337)", "assay": "MALDI-TOF MS demethylation activity assay, KDM4E", "set-up": "key: 🟢: Indicates that clear demethylation activity was observed; 🟡: Indicates that low level demethylation activity was observed (<10% conversion after 1 h); 🔴: Indicates no activity under the stated conditions (1 μM KDM, 10 μM peptide); 🟡*: *Indicates demethylation activity was only observed with 5 μM KDM", "details": "peptide as substrate, 1 μM KDM, 10 μM peptide, 50 mM HEPES pH 7.5, Fe(II) 10 μM, ascorbate 100 μM, 2OG 200 μM, 1 h at 37 °C", "experimental": "(§1) Recombinant proteins (1 μM) were incubated with peptides (10 μM, sequences are given in Table S1) in 50 mM HEPES, pH 7.5 with addition of Fe(II) ammonium sulfate (10 μM), sodium ascorbate (100 μM) and 2‐oxoglutaric acid (200 μM). Reactions with KDM3A and KDM7A also contained 1 mM tris(2‐carboxyethyl)phosphine hydrochloride. No enzyme reactions were included as negative controls. Reactions were incubated for 1 h at 37 °C before being quenched with 1 : 1 (v/v) methanol. Analysis was carried out by MALDI‐TOF MS (Bruker, Billerica, MA, USA), with demethylation observed as mass shifts of 14 Da.\n(§2) The propensity of human JmjC KDMs to catalyse demethylation at H1.4K26 was investigated using recombinant forms of the catalytic domains of representatives of each human JmjC KDM subfamily (KDM2‐7) and fragment peptides (Table S1) 37. Three peptides with identical sequences, corresponding to residues 18–32 of histone H1.4 (H2N‐[…]‐CONH2), but containing either a N ^ε‐tri‐, di‐ or monomethyllysine at K26 were synthesised (Fig. 1B and Table S1). Activity assays monitoring JmjC KDM‐catalysed demethylation of the peptides were then carried out; samples were prepared containing each peptide, 2‐oxoglutarate (2OG), ferrous iron, ascorbate and individual representatives from each JmjC KDM subfamily (KDM2A 38, KDM3A 21, KDM4E 22, KDM5C 39, 40, KDM6B 41, KDM7A 42)."}, "KDM4A (KDM4A1–359)": {"tested_on": "KDM4A (KDM4A1–359)", "assay": "MALDI-TOF MS demethylation activity assay, KDM4A", "set-up": "key: 🟢: Indicates that clear demethylation activity was observed; 🟡: Indicates that low level demethylation activity was observed (<10% conversion after 1 h); 🔴: Indicates no activity under the stated conditions (1 μM KDM, 10 μM peptide); 🟡*: *Indicates demethylation activity was only observed with 5 μM KDM", "details": "peptide as substrate, 1 μM KDM, 10 μM peptide, 50 mM HEPES pH 7.5, Fe(II) 10 μM, ascorbate 100 μM, 2OG 200 μM, 1 h at 37 °C", "experimental": "as §1\n(§3) Given the activity observed with KDM4E and KDM7A, we decided to investigate the intra‐subfamily conservation of this demethylation activity. The demethylation activity of the other subfamily members (KDM4A‐D and KDM7B) was therefore screened. […] Note that as with H3K9, demethylation of the monomethylated H1.4K26 peptide was only observed with KDM4E, under the stated conditions 24."}, "KDM4B (KDM4B1–359)": {"tested_on": "KDM4B (KDM4B1–359)", "assay": "MALDI-TOF MS demethylation activity assay, KDM4B", "set-up": "key: 🟢: Indicates that clear demethylation activity was observed; 🟡: Indicates that low level demethylation activity was observed (<10% conversion after 1 h); 🔴: Indicates no activity under the stated conditions (1 μM KDM, 10 μM peptide); 🟡*: *Indicates demethylation activity was only observed with 5 μM KDM", "details": "peptide as substrate, 1 μM KDM, 10 μM peptide, 50 mM HEPES pH 7.5, Fe(II) 10 μM, ascorbate 100 μM, 2OG 200 μM, 1 h at 37 °C", "experimental": "as §1, §3"}, "KDM7B (PHF8; KDM7B1–447)": {"tested_on": "KDM7B (PHF8; KDM7B1–447)", "assay": "MALDI-TOF MS demethylation activity assay, KDM7B (PHF8)", "set-up": "key to demethylation activity on methylated H1.4 peptide: 🟢: Indicates that clear demethylation activity was observed; 🟡: Indicates that low level demethylation activity was observed (<10% conversion after 1 h); 🔴: Indicates no activity under the stated conditions (1 μM KDM, 10 μM peptide); 🟡*: *Indicates demethylation activity was only observed with 5 μM KDM", "details": "peptide as substrate; MALDI-TOF MS; 1 μM KDM (* = only with 5 μM KDM), 10 μM peptide, 50 mM HEPES pH 7.5, Fe(II) 10 μM, ascorbate 100 μM, 2OG 200 μM, 1 h at 37 °C", "experimental": "as §1, §3\nN ^ε‐Trimethylated H3K4 binds to the plant homeobox domain of KDM7B, targeting the N ^ε‐dimethyllysine at H3K9 to the catalytic domain, and thus promoting demethylation 29, 44. To test whether similar targeting may occur with H1.4, promoting activity at H1.4K26, an H1.4 peptide was synthesised containing di‐N ^ε‐methyllysine at K26 and tri‐N ^ε‐methyllysine at K21 (i.e. at the equivalent position in the sequence to K4 in the H3 peptide, Fig. 1B, Table S1). Monomethylation at H1.4K21 has previously been observed by proteomic mass spectrometry 45. With the aim of enhancing activity, the enzyme concentration was increased from 1 μM to 5 μM, and time course analyses were conducted with both KDM7A and KDM7B, both with the new peptide (H1.4(18–32)K21me3K26me2) and the H1.4 peptides methylated only at K26 (Fig. 2B). […] Thus, it appears unlikely that N ^ε‐trimethylation at H1.4K21 promotes demethylation at H1.4K26 by KDM7B."}, "KDM4A": {"tested_on": "KDM4A", "assay": "1H NMR activity assay (time course)", "details": "KDM4A 10 μM, peptide 400 μM, 2OG 400 μM, Fe(II) 100 μM, ascorbate 1 mM, 50 mM ammonium formate pH 7.5, 500 mM NaCl, 700 MHz", "experimental": "The NMR analyses employed a Bruker Avance III 700 MHz spectrometer with an inverse TCI cryoprobe optimised for ^1H observation and were carried out as previously described 6. Samples (KDM4A (10 μM), 2OG (400 μM), H1.4(18–32)K26me3 peptide (400 μM), Fe(II) ammonium sulfate (100 μM) and ascorbate (1 mM) in 50 mM ammonium formate, pH 7.5, 500 mM NaCl in 10% v/v D2O) were prepared in a microcentrifuge tube (total volume = 75 μL), before being transferred to an NMR tube. The samples were then analysed over time using automated routines; each time‐point corresponded to one experiment accumulating 16 transients (89 s total acquisition time per experiment). The solvent resonance was depleted by excitation sculpting using a 180° sinc pulse (duration = 2 ms) 30.\nStudies then focused on determining the proficiency of H1.4K26 demethylation by the KDM4 enzymes."}, "KDM5C (KDM5C1–765)": {"tested_on": "KDM5C (KDM5C1–765)", "assay": "MALDI-TOF MS demethylation activity assay, KDM5C", "set-up": "key: 🟢: Indicates that clear demethylation activity was observed; 🟡: Indicates that low level demethylation activity was observed (<10% conversion after 1 h); 🔴: Indicates no activity under the stated conditions (1 μM KDM, 10 μM peptide); 🟡*: *Indicates demethylation activity was only observed with 5 μM KDM", "details": "peptide as substrate, 1 μM KDM, 10 μM peptide, 50 mM HEPES pH 7.5, Fe(II) 10 μM, ascorbate 100 μM, 2OG 200 μM, 1 h at 37 °C", "experimental": "as §1, §2"}, "KDM4D (KDM4D1–359)": {"tested_on": "KDM4D (KDM4D1–359)", "assay": "MALDI-TOF MS demethylation activity assay, KDM4D", "set-up": "key: 🟢: Indicates that clear demethylation activity was observed; 🟡: Indicates that low level demethylation activity was observed (<10% conversion after 1 h); 🔴: Indicates no activity under the stated conditions (1 μM KDM, 10 μM peptide); 🟡*: *Indicates demethylation activity was only observed with 5 μM KDM", "details": "peptide as substrate, 1 μM KDM, 10 μM peptide, 50 mM HEPES pH 7.5, Fe(II) 10 μM, ascorbate 100 μM, 2OG 200 μM, 1 h at 37 °C", "experimental": "as §1, §3"}}, "note": "Square brackets hold non-standard residues; d marks the D form. Ends that are not written are not given here. Lys(Me3) = C[N+](C)(C)CCCC[C@H](N)C(=O)O"}
{"substance": "TPVKKKAR[Lys(Me3)]SAGAAK [H1.4(18–32)K26me3, peptide of residues 18–32 of histone H1.4 with N ε-trimethyllysine at K26]", "values": [{"measurement": "demethylation activity on methylated H1.4 peptide", "setting": "KDM4E (KDM4E1–337)", "result": "🟢"}, {"measurement": "demethylation activity on methylated H1.4 peptide", "setting": "KDM4A (KDM4A1–359)", "result": "🟢"}, {"measurement": "demethylation activity on methylated H1.4 peptide", "setting": "KDM4B (KDM4B1–359)", "result": "🟢"}, {"measurement": "demethylation activity on methylated H1.4 peptide", "setting": "KDM7B (PHF8; KDM7B1–447)", "result": "🔴"}, {"measurement": "demethylation of the Kme3 residue by 1H NMR (result in words)", "setting": "KDM4A", "result": "time‐dependent demethylation"}, {"measurement": "demethylation activity on methylated H1.4 peptide", "setting": "KDM5C (KDM5C1–765)", "result": "🔴"}, {"measurement": "demethylation activity on methylated H1.4 peptide", "setting": "KDM4D (KDM4D1–359)", "result": "🟢"}]}
